Measurements: patent US11007524B2, “Automatic microfluidic system for rapid personalized drug screening and testing method for personalized antibiotic susceptibility” (National Tsing Hua University, priority 2019, dated 2021)
In brackets after ≈: the same amount, converted by molar mass.

Tests used:
[1] = test system: vancomycin-intermediate Staphylococcus aureus (VISA); experiment: Minimum inhibitory concentration by automatic microfluidic system (Example 9), resazurin colour change; type: cell-based
Method: A determination of minimum inhibitory concentration is performed by using the microfluidic chip 100 of FIG. 1 in cooperated with the testing method 200 for personalized antibiotic susceptibility of FIG. 5. The details of the testing method 200 has been described as mentioned above so that the same process will not be further illustrated herein.
In experimental, the microfluidic chip 100 is divided into a reaction zone 1001 and a reaction zone 1002 along line 10-10 by using the fluid storage chamber 111a and the fluid storage chamber 111b as a center. The reaction zone 1001 is utilized for determining the minimum inhibitory concentration of vancomycin for the vancomycin-intermediate Staphylococcus aureus, and the reaction zone 1002 is utilized for determining the minimum inhibitory concentration of gentamicin for the vancomycin-intermediate Staphylococcus aureus. After 4 hours of incubation of the reaction solutions including the resazurin, with different concentrations, the color of the reaction solution will be gradually changed to red when the vancomycin-intermediate Staphylococcus aureus grows and can be observed directly through the microfluidic chip 100.
In such the example, the reference numerals of the reaction chambers 131 of the microfluidic chip 100 are reassigned to the reaction chambers 131a to 131l. […]

[2] = test system: vancomycin-intermediate Staphylococcus aureus (VISA); experiment: Minimum inhibitory concentration by broth microdilution (Comparative Example 1); type: cell-based; details: same conditions
Text: Furthermore, the present testing further includes Comparative Example 1.

| Compound | MIC ([1]; Staphylococcus aureus, VISA, 4 h, read-out: minimum inhibitory concentration, Example 9) [µg/mL] | MIC ([2]; Staphylococcus aureus) [µg/mL] | minimum inhibitory concentration, Example 9 ([1]; microfluidic chip, VISA 1500 CFU, 3 μL reaction solution, 4 hours of incubation, resazurin) [µg/mL] | minimum inhibitory concentration, Comparative Example 1 [2] [µg/mL] |
| --- | --- | --- | --- | --- |
| CN[C@H](CC(C)C)C(=O)N[C@H]1C(=O)N[C@@H](CC(N)=O)C(=O)N[C@H]2C(=O)N[C@H]3C(=O)N[C@H](C(=O)N[C@H](C(=O)O)c4cc(O)cc(O)c4-c4cc3ccc4O)[C@H](O)c3ccc(c(Cl)c3)Oc3cc2cc(c3O[C@@H]2O[C@H](CO)[C@@H](O)[C@H](O)[C@H]2O[C@H]2C[C@](C)(N)[C@H](O)[C@H](C)O2)Oc2ccc(cc2Cl)[C@H]1O [Vancomycin, vancomycin] | 2.16 (≈ 1.49 µM) | 2 (≈ 1.38 µM) | – | – |
| gentamicin | – | – | >7.52 | >8 |
